Series [1] is described as follows: Percutaneous penetration/permeation in static Franz-type diffusion cells with split-thickness human cadaver skin. In kind it is in vitro ADME. The conditions noted are these: solution b (1% in propylene glycol/oleyl alcohol 9:1); for Skin concentration: 48 hours, stratum corneum removed. The method, then: Frozen human dorsal cadaver skin (Caucasian; back skin) was obtained from the National Disease Research Interchange, Philadelphia, USA. Skin from three different donors was used;
Thawed skin samples were dermatomed to 0.7 mm with an Aesculap dermatome to obtain “split-thickness” skin.
Percutaneous penetration was studied in vitro by means of static Franz-type diffusion cells with phosphate buffered saline/fetal calf serum 2:1 as receptor fluid at 32° in triplicates for 48 hours. The compounds were applied as 1% solutions (300 μl each) in propylene glycol (solution a) or in propylene glycol/oleyl alcohol 9:1 (solution b). Samples of 100 μl were taken 5 to 7 times and replaced by fresh receptor fluid as described previously (Schmook, et al., Skin Pharmacol. 1993, 6:116-124).
Drug analysis was performed with specimens of the exposed skin (at the end of the 48 hours experiment), from which the stratum corneum had been removed by 20 strippings with an adhesive tape. The weighed skin samples were homogenized in 0.2 M ammonium phosphate buffer (pH 7.0). The homogenates were extracted with ethyl acetate and processed as described (Schmook, et al 1993).

With `CNCc1cc(Oc2ccc3c(C(=O)Nc4cccc(C(F)(F)F)c4)cccc3c2)ncn1` [Example 54, 6-(6-Methylaminomethyl-pyrimidin-4-yloxy)-naphthalene-1-carboxylic acid (3-trifluoromethyl-phenyl)-amide], the melting point was 141 to 143 °C.

In series [1] (batch of skin 3), `Nc1cc(Oc2ccc3c(C(=O)Nc4ccc(F)c(C(F)(F)F)c4)cccc3c2)ncn1` [drawing 78] came in with a Permeation rate of 22 ± 3 ng/mL/h and a Skin concentration of 19 ± 7 µg/g.

In series [1] (batch of skin 3), `Nc1cc(Oc2ccc3c(C(=O)Nc4cccc(C(F)(F)F)c4)cccc3c2)ncn1` [drawing 77] had a Permeation rate of 12 ± 4 ng/mL/h and a Skin concentration of 34 ± 3 µg/g.

`Nc1cc(Oc2ccc3c(C(=O)Nc4ccc(F)c(C(F)(F)F)c4)cccc3c2)ncn1` had a melting point of 224 to 225 °C.

`COC(=O)Nc1cc(Oc2ccc3c(C(=O)Nc4cccc(C(F)(F)F)c4)cccc3c2)ccn1` [Example 69, {4-[5-(3-Trifluoromethyl-phenylcarbamoyl)-naphthalen-2-yloxy]-pyridin-2-yl}-carbamic acid methyl ester]: the melting point is 230 to 232 °C.

With `Nc1cc(Sc2ccc3c(C(=O)Nc4ccc(F)c(C(F)(F)F)c4)cccc3c2)ncn1` [Example 57, 6-(6-Amino-pyrimidin-4-ylsulfanyl)-naphthalene-1-carboxylic acid (4-fluoro-3-trifluoromethyl-phenyl)-amide], the melting point is 221 °C.

Take `CN(C)CCNC(=O)c1cc(Oc2ccc3c(C(=O)Nc4cccc(C(F)(F)F)c4)cccc3c2)ccn1` [Example 67, 4-[5-(3-Trifluoromethyl-phenylcarbamoyl)-naphthalen-2-yloxy]-pyridine-2-carboxylic acid (2-dimethylamino-ethyl)-amide]: the melting point lay in the range of 80 to 82 °C.

Consider `Nc1nc(Cl)cc(Oc2ccc3c(C(=O)Nc4cccc(C(F)(F)F)c4)cccc3c2)n1` [Example 13, 6-(2-Amino-6-chloro-pyrimidin-4-yloxy)-naphthalene-1-carboxylic acid (3-trifluoromethyl-phenyl)-amide], for which the melting point lay in the range of 234 to 236 °C.

In series [1] (batch of skin 1), `Clc1ccc(Nc2nnc(Cc3ccncc3)c3ccccc23)cc1` yielded a Permeation rate of 286 ± 90 ng/mL/h and a Skin concentration of 10.4 ± 2.0 µg/g.

As to `Nc1cc(Sc2ccc3c(C(=O)Nc4cccc(C(F)(F)F)c4)cccc3c2)ncn1` [Example 58, 6-(6-Amino-pyrimidin-4-ylsulfanyl)-naphthalene-1-carboxylic acid (3-trifluoromethyl-phenyl)-amide], the melting point was found to be 205 °C.

Turning to `N#Cc1cc(Oc2ccc3c(C(=O)Nc4cccc(C(F)(F)F)c4)cccc3c2)ncn1` [Example 43, 6-(6-Cyano-pyrimidin-4-yloxy)-naphthalene-1-carboxylic acid (3-trifluoromethyl-phenyl)-amide], the melting point was 167 °C.

Compound `Nc1nccc(CCc2ccc3c(C(=O)Nc4cccc(C(F)(F)F)c4)cccc3c2)n1` [Example 70, 6-[2-(2-Amino-pyrimidin-4-yl)-ethyl]-naphthalene-1-carboxylic acid (3-trifluoromethyl-phenyl)-amide] came in with a melting point of 225 to 227 °C.

In turn, `CNc1cc(Oc2ccc3c(C(=O)Nc4cccc(C(F)(F)F)c4)cncc3c2)ncn1` [Example 96, 7-(6-Methylamino-pyrimidin-4-yloxy)-isoquinoline-4-carboxylic acid (3-trifluoromethyl-phenyl)-amide] came in with a melting point of 205 to 208 °C.

As to `CNc1cc(Oc2ccc3c(C(=O)Nc4ccc(F)c(C(F)(F)F)c4)cncc3c2)ncn1` [Example 95, 7-(6-Methylamino-pyrimidin-4-yloxy)-isoquinoline-4-carboxylic acid (4-fluoro-3-trifluoromethyl-phenyl)-amide], the melting point fell in the range of 255 to 257 °C.

As to `Nc1cc(Sc2ccc3c(C(=O)Nc4cccc(OC(F)(F)F)c4)cccc3c2)ncn1` [Example 61, 6-(6-Amino-pyrimidin-4-ylsulfanyl)-naphthalene-1-carboxylic acid (3-trifluoromethoxy-phenyl)-amide], the melting point lay within 197 to 199 °C.

In turn, `CC(C)c1ccc(-n2nc(C(C)(C)C)cc2NC(=O)c2cncc3cc(Oc4cc(N)ncn4)ccc23)cc1` [Example 93, 7-(6-Amino-pyrimidin-4-yloxy)-isoquinoline-4-carboxylic acid [5-tert-butyl-2-(4-isopropyl-phenyl)-2H-pyrazol-3-yl]-amide] returned a melting point of 131 to 133 °C.

Compound `CCCCOC(=O)c1cc(Oc2ccc3c(C(=O)Nc4cccc(C(F)(F)F)c4)cccc3c2)ccn1` [Example 64, 4-[5-(3-Trifluoromethyl-phenylcarbamoyl)-naphthalen-2-yloxy]-pyridine-2-carboxylic acid butyl ester] displayed a melting point of 128 to 130 °C.

Take `Nc1nccc(Oc2ccc3c(C(=O)Nc4cccc(C(F)(F)F)c4)cccc3c2)n1` [drawing 76]: in series [1] (batch of skin 2), the Permeation rate worked out at 13 ± 3 ng/mL/h and the Skin concentration stood at 44 ± 17 µg/g. In series [1] (batch of skin 3), the Permeation rate was 8 ± 2 ng/mL/h and the Skin concentration was determined as 24 ± 6 µg/g.

The compound `CNC(=O)c1cc(Oc2ccc3c(C(=O)Nc4cccc(C(F)(F)F)c4)cccc3c2)ccn1` [Example 65, 4-[5-(3-Trifluoromethyl-phenylcarbamoyl)-naphthalen-2-yloxy]-pyridine-2-carboxylic acid methylamide] displayed a melting point of 175 to 177 °C.

Consider `CNc1cc(Oc2ccc3c(C(=O)Nc4ccc(N5CCOCC5)c(C(F)(F)F)c4)cccc3c2)ncn1` [Example 40, 6-(6-Methylamino-pyrimidin-4-yloxy)-naphthalene-1-carboxylic acid (4-morpholin-4-yl-3-trifluoromethyl-phenyl)-amide], for which the melting point is 156 to 157 °C.

In series [1] (batch of skin 3), `Nc1nccc(Oc2ccc3c(C(=O)Nc4ccc(F)c(C(F)(F)F)c4)cccc3c2)n1` showed a Permeation rate of 19 ± 3 ng/mL/h and a Skin concentration of 46 ± 13 µg/g.

Regarding `CCN1CCN(Cc2ccc(-c3cc4c(N[C@H](C)c5ccccc5)ncnc4[nH]3)cc2)CC1`, in series [1] (batch of skin 1), the Permeation rate is 182 ± 68 ng/mL/h and the Skin concentration was found to be 35 ± 12 µg/g. Further, in series [1] (batch of skin 2), the Permeation rate turned out to be 189 ± 43 ng/mL/h and the Skin concentration stood at 72 ± 24 µg/g.

As to `Nc1cc(C#Cc2ccc3c(C(=O)Nc4cccc(C(F)(F)F)c4)cccc3c2)ncn1` [Example 71, 6-(6-Amino-pyrimidin-4-ylethynyl)-naphthalene-1-carboxylic acid (3-trifluoromethyl-phenyl)-amide], the melting point lay in the range of 217 to 220 °C.

In the case of `CC(C)(C)c1cc(NC(=O)c2cncc3cc(Oc4cc(N)ncn4)ccc23)n(-c2ccc(F)cc2)n1` [Example 94, 7-(6-Amino-pyrimidin-4-yloxy)-isoquinoline-4-carboxylic acid [5-tert-butyl-2-(4-fluoro-phenyl)-2H-pyrazol-3-yl]-amide], the melting point lay within 124 to 126 °C.

`O=C(Nc1cccc(C(F)(F)F)c1)c1cccc2cc(Oc3cc(CCl)ncn3)ccc12` [Example 53, 6-(6-Chloromethyl-pyrimidin-4-yloxy)-naphthalene-1-carboxylic acid (3-trifluoromethyl-phenyl)-amide] returned a melting point of 178 to 181 °C.

As to `Nc1cc(Oc2ccc3c(C(=O)Nc4cccc(C(F)(F)F)c4)cccc3c2)ccn1` [Example 68, 6-(2-Amino-pyridin-4-yloxy)-naphthalene-1-carboxylic acid (3-trifluoromethyl-phenyl)-amide], the melting point lay in the range of 222 to 224 °C.

For `COC(=O)Nc1nccc(Oc2ccc3c(C(=O)Nc4cccc(C(F)(F)F)c4)cccc3c2)n1` [Example 19, 6-(2-Methoxycarbonylamino-pyrimidin-4-yloxy)-naphthalene-1-carboxylic acid (3-trifluoromethyl-phenyl)-amide], the melting point lay within 199 to 200 °C.

In turn, `Nc1cc(Oc2ccc3c(C(=O)Nc4cccc(C(F)(F)F)c4)cccc3c2)ncn1` [Example 26, 6-(6-Amino-pyrimidin-4-yloxy)-naphthalene-1-carboxylic acid (3-trifluoromethyl-phenyl)-amide] came in with a melting point of 243 to 244 °C.

In the case of `CC(C)NC(=O)c1cc(Oc2ccc3c(C(=O)Nc4cccc(C(F)(F)F)c4)cccc3c2)ncn1` [Example 51, 6-[5-(3-Trifluoromethyl-phenylcarbamoyl)-naphthalen-2-yloxy]-pyrimidine-4-carboxylic acid isopropylamide], the melting point lay within 205 to 208 °C.

Compound `CN(C)Cc1cc(Oc2ccc3c(C(=O)Nc4cccc(C(F)(F)F)c4)cccc3c2)ncn1` [Example 55, 6-(6-Dimethylaminomethyl-pyrimidin-4-yloxy)-naphthalene-1-carboxylic acid (3-trifluoromethyl-phenyl)-amide] yielded a melting point of 180 to 181 °C.

For the compound `NC(=O)c1cc(Oc2ccc3c(C(=O)Nc4cccc(C(F)(F)F)c4)cccc3c2)ccn1` [Example 66, 4-[5-(3-Trifluoromethyl-phenylcarbamoyl)-naphthalen-2-yloxy]-pyridine-2-carboxylic acid amide], the melting point fell in the range of 117 to 120 °C.

A word on the melting point: it is the temperature of the solid-liquid transition.

These data come from US20120172386A1, “Combinations Comprising a VEGF Receptor Inhibitor” (NOVARTIS AG, priority 2005, published 2012).
